From PubChem BioAssay AID330 (DTP/NCI, 2004)
Inconclusive results and toxic doses are left out. Rule for the calls: active = survival T/C of 150% or more; inactive = T/C below 125% in these data.

Test system: P388 leukemia ip, CD2F1 mice, survival T/C
Test: NCI In Vivo Anticancer Drug Screen. Data for tumor model P388 Leukemia (intraperitoneal) in CD2F1 (CDF1) mice
Conditions: endpoint: median survival time, higher = longer survival
Method in brief: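 Mice carrying the transplanted tumor received test compound or vehicle. Survival was recorded in each group, and the value is the treated-group measurement divided by that of the vehicle-treated control group.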

[1] = dose: 25.0 mg/kg/injection, schedule: Q01DX009 (ip), vehicle: saline with Tween-80
[2] = dose: 50.0 mg/kg/injection, schedule: Q01DX009 (ip), vehicle: saline with Tween-80
[3] = dose: 50.0 mg/kg/injection, schedule: Q01DX005 (ip), vehicle: saline with Tween-80
[4] = dose: 100.0 mg/kg/injection, schedule: Q01DX005 (ip), vehicle: saline with Tween-80
[5] = dose: 100.0 mg/kg/injection, schedule: Q01DX009 (ip), vehicle: saline with Tween-80
[6] = dose: 200.0 mg/kg/injection, schedule: Q01DX009 (ip), vehicle: saline with Tween-80
[7] = dose: 60.0 mg/kg/injection, schedule: Q01DX005 (ip), vehicle: saline with Tween-80
[8] = dose: 120.0 mg/kg/injection, schedule: Q01DX005 (ip), vehicle: saline with Tween-80
[9] = dose: 240.0 mg/kg/injection, schedule: Q01DX005 (ip), vehicle: saline with Tween-80
[10] = dose: 50.0 mg/kg/injection, schedule: Q01DX009 (ip), vehicle: Klucel (hydroxypropylcellulose) (HPC)
[11] = dose: 100.0 mg/kg/injection, schedule: Q01DX009 (ip), vehicle: Klucel (hydroxypropylcellulose) (HPC)
[12] = dose: 200.0 mg/kg/injection, schedule: Q01DX009 (ip), vehicle: Klucel (hydroxypropylcellulose) (HPC)
[13] = dose: 50.0 mg/kg/injection, schedule: Q01DX005 (ip), vehicle: Klucel (hydroxypropylcellulose) (HPC)
[14] = dose: 100.0 mg/kg/injection, schedule: Q01DX005 (ip), vehicle: Klucel (hydroxypropylcellulose) (HPC)
[15] = dose: 200.0 mg/kg/injection, schedule: Q01DX005 (ip), vehicle: Klucel (hydroxypropylcellulose) (HPC)
[16] = dose: 60.0 mg/kg/injection, schedule: Q01DX005 (ip), vehicle: Klucel (hydroxypropylcellulose) (HPC)
[17] = dose: 120.0 mg/kg/injection, schedule: Q01DX005 (ip), vehicle: Klucel (hydroxypropylcellulose) (HPC)
[18] = dose: 240.0 mg/kg/injection, schedule: Q01DX005 (ip), vehicle: Klucel (hydroxypropylcellulose) (HPC)

Measured: T/C

CC1(C)CC(N)=CC(=S)N1
inactive: dose: 12.5 mg/kg/injection, schedule: Q01DX009 (ip), vehicle: saline with Tween-80 92 % of control | [1] 97 % of control | [2] 101 % of control

COc1ccc2c(c1)CC/C(=C\C1(Sc3ccccc3)CC1)C2O (configuration not stated)
inactive: [3] 102 % of control | [4] 102 % of control | dose: 200.0 mg/kg/injection, schedule: Q01DX005 (ip), vehicle: saline with Tween-80 98 % of control

C=C(C)c1nc2c(=O)nc(N)nc-2n(O)c1C
inactive: dose: 37.5 mg/kg/injection, schedule: Q01DX009 (ip), vehicle: saline with Tween-80 99 % of control | dose: 150.0 mg/kg/injection, schedule: Q01DX009 (ip), vehicle: saline with Tween-80 108 % of control

C=C[P+](c1ccccc1)(c1ccccc1)c1ccccc1
inactive: dose: 0.37 mg/kg/injection, schedule: Q01DX009 (ip), vehicle: saline 104 % of control | dose: 0.75 mg/kg/injection, schedule: Q01DX009 (ip), vehicle: saline 105 % of control | dose: 1.5 mg/kg/injection, schedule: Q01DX009 (ip), vehicle: saline 116 % of control

O=C(O)C1=C(C=C2CCCCC2)OCCC1
inactive: [2] 88 % of control | [5] 92 % of control | [6] 95 % of control

Cc1cc(NC(=S)SC(C)C)ccc1Br
inactive: dose: 50.0 mg/kg/injection, schedule: Q01DX009 (ip), vehicle: suspension in saline 100 % of control | dose: 100.0 mg/kg/injection, schedule: Q01DX009 (ip), vehicle: suspension in saline 101 % of control | dose: 200.0 mg/kg/injection, schedule: Q01DX009 (ip), vehicle: suspension in saline 100 % of control

O=C(CC(O)(c1ccccc1)c1ccccc1)Sc1ccccc1
inactive: dose: 100.0 mg/kg/injection, schedule: Q04DX003 (ip), vehicle: Klucel (hydroxypropylcellulose) (HPC) 110 % of control | dose: 200.0 mg/kg/injection, schedule: Q04DX003 (ip), vehicle: Klucel (hydroxypropylcellulose) (HPC) 105 % of control | dose: 400.0 mg/kg/injection, schedule: Q04DX003 (ip), vehicle: Klucel (hydroxypropylcellulose) (HPC) 105 % of control

O=c1ccc2[n+]([O-])c3ccc(O)cc3oc-2c1
inactive: [3] 95 % of control | [4] 100 % of control

CC(C)CC(=O)OCC1=CCN2CC[C@@H](O)[C@@H]12
inactive: dose: 15.0 mg/kg/injection, schedule: Q01DX009 (ip), vehicle: saline + alcohol 105 % of control | dose: 30.0 mg/kg/injection, schedule: Q01DX009 (ip), vehicle: saline + alcohol 109 % of control | dose: 60.0 mg/kg/injection, schedule: Q01DX009 (ip), vehicle: saline + alcohol 105 % of control | dose: 120.0 mg/kg/injection, schedule: Q01DX009 (ip), vehicle: saline + alcohol 108 % of control | dose: 240.0 mg/kg/injection, schedule: Q01DX009 (ip), vehicle: saline + alcohol 108 % of control | dose: 480.0 mg/kg/injection, schedule: Q01DX009 (ip), vehicle: saline + alcohol 114 % of control

CC(=O)c1ccc(N/N=[N+](/C)[O-])cc1
inactive: [7] 99 % of control | [8] 101 % of control | [9] 99 % of control

CCCC(C)N(CC(=O)Nc1ccc(S(N)(=O)=O)cc1)C(C)=O (configuration not stated)
inactive: [10] 100 % of control | [11] 107 % of control | [12] 109 % of control

CC(=O)NS(=O)(=O)c1ccc(N=Nc2c(O)n(-c3ccccc3)n(-c3ccccc3)c2=O)cc1
inactive: [10] 88 % of control | [11] 101 % of control | [12] 109 % of control

CC(NNC(=S)N1CCCCCC1)c1cccc[n+]1[O-] (configuration not stated)
inactive: [13] 101 % of control | [14] 101 % of control | [15] 93 % of control

O=c1cc(Br)[nH]c(=O)o1
inactive: [1] 91 % of control | [2] 97 % of control | [5] 92 % of control

CC1=C2C(=CO[C@H](C)[C@H]2C)C(=O)C(C(=O)O)=C1O
inactive: dose: 6.25 mg/kg/injection, schedule: Q01DX009 (ip), vehicle: Klucel (hydroxypropylcellulose) (HPC) 112 % of control | dose: 6.25 mg/kg/injection, schedule: Q01DX009 (ip), vehicle: saline 117 % of control | dose: 12.5 mg/kg/injection, schedule: Q01DX009 (ip), vehicle: Klucel (hydroxypropylcellulose) (HPC) 120 % of control | dose: 12.5 mg/kg/injection, schedule: Q01DX009 (ip), vehicle: saline 115 % of control | dose: 25.0 mg/kg/injection, schedule: Q01DX009 (ip), vehicle: Klucel (hydroxypropylcellulose) (HPC) 124 % of control

Cc1cc(=O)c2c(=O)n(-c3ccccc3)[nH]c2[nH]1
inactive: [7] 111 % of control | [8] 109 % of control | [9] 100 % of control

CCOC(=O)/C(=C/Nc1ccc(OCc2ccccc2)cc1)NC(=O)c1ccccc1
inactive: [2] 87 % of control | dose: 50.0 mg/kg/injection, schedule: Q01DX009 (ip), vehicle: saline 86 % of control | [5] 86 % of control | dose: 100.0 mg/kg/injection, schedule: Q01DX009 (ip), vehicle: saline 86 % of control | [6] 87 % of control | dose: 200.0 mg/kg/injection, schedule: Q01DX009 (ip), vehicle: saline 88 % of control | dose: 400.0 mg/kg/injection, schedule: Q01DX009 (ip), vehicle: saline with Tween-80 97 % of control | dose: 400.0 mg/kg/injection, schedule: Q01DX009 (ip), vehicle: saline 97 % of control

COc1ccc(N2C(=O)CCC2=O)cc1
inactive: dose: 100.0 mg/kg/injection, schedule: Q01DX001 (ip), vehicle: saline with Tween-80 109 % of control | dose: 200.0 mg/kg/injection, schedule: Q01DX001 (ip), vehicle: saline with Tween-80 100 % of control | dose: 400.0 mg/kg/injection, schedule: Q01DX001 (ip), vehicle: saline with Tween-80 95 % of control

O=C1OC(=O)N2CSCC12 (configuration not stated)
inactive: [13] 101 % of control | [14] 96 % of control | [15] 92 % of control

CC(NC(=O)OCC1c2ccccc2-c2ccccc21)C(=O)O (configuration not stated)
inactive: [13] 103 % of control | [14] 98 % of control | [15] 96 % of control

CC1=CC(O)(CC(N)=O)C=C(C)C1=O
inactive: dose: 3.13 mg/kg/injection, schedule: Q01DX009 (ip), vehicle: distilled water + Tween-80 100 % of control | dose: 6.25 mg/kg/injection, schedule: Q01DX009 (ip), vehicle: distilled water + Tween-80 100 % of control | dose: 12.5 mg/kg/injection, schedule: Q01DX009 (ip), vehicle: distilled water + Tween-80 99 % of control | dose: 25.0 mg/kg/injection, schedule: Q01DX009 (ip), vehicle: distilled water + Tween-80 100 % of control | dose: 50.0 mg/kg/injection, schedule: Q01DX009 (ip), vehicle: distilled water + Tween-80 100 % of control | dose: 100.0 mg/kg/injection, schedule: Q01DX009 (ip), vehicle: distilled water + Tween-80 108 % of control | dose: 200.0 mg/kg/injection, schedule: Q01DX009 (ip), vehicle: distilled water + Tween-80 108 % of control | dose: 400.0 mg/kg/injection, schedule: Q01DX009 (ip), vehicle: distilled water + Tween-80 108 % of control

OCCCC(=S)NCCNC(=S)CCCO
inactive: [16] 101 % of control | [17] 92 % of control | [18] 101 % of control

Fc1cccc(Cl)c1C(Nc1ncccn1)Nc1ncccn1
inactive: [16] 100 % of control | [17] 94 % of control | [18] 88 % of control

O=C(/N=C1\N=Nc2nc(C3(c4nc5n(c4O)/C(=N/C(=O)Nc4ccc(Cl)cc4)N=N5)CCCC3=O)c(O)n21)Nc1ccc(Cl)cc1 (configuration not stated)
inactive: [7] 91 % of control | [8] 86 % of control

Clc1ccc2nc3ccccc3c(SCCCCCCSc3c4ccccc4nc4ccc(Cl)cc34)c2c1
inactive: dose: 7.5 mg/kg/injection, schedule: Q01DX005 (ip), vehicle: Klucel (hydroxypropylcellulose) (HPC) 103 % of control | dose: 15.0 mg/kg/injection, schedule: Q01DX005 (ip), vehicle: Klucel (hydroxypropylcellulose) (HPC) 97 % of control | [18] 89 % of control

O=C1COC(C(O)(c2ccccc2)c2ccccc2)C(=O)N1 (configuration not stated)
inactive: [7] 107 % of control | [8] 102 % of control | [9] 98 % of control

COc1ccc(NC(CCN2CCN(c3ccccc3)CC2)=NC(C)(C)C)cc1
inactive: [10] 96 % of control | [11] 96 % of control
